The values below come from US12616697B2, “Methods of treatment with myosin modulator” (MyoKardia, Inc., priority 2020, dated 2026).

SMILES strings stand for the structures. Values joined by “and” are separate entries in the source; they are usually repeats but may differ in a detail not shown here. Equal entries are not always repeated.

Data set [1] deals with adults with symptomatic oHCM. In words: PIONEER-OLE Phase 2 open-label extension study of mavacamten. It is filed as in vivo. The procedure: All subjects were started on a dose of 5 mg QD.
To maximize safety, the starting dose will be 5 mg for all subjects. Subjects will return at Week 4 (±4 days) for a plasma PK sample to measure drug levels and to undergo echocardiography to determine LVOT gradient (at rest, after a Valsalva maneuver, and after exercise) and left ventricular ejection fraction (LVEF).
After Week 6, additional study visits will occur at Week 8 (±7 days), Week 12 (±7 days), and every 12 weeks (±7 days) thereafter. Subjects also will be contacted by phone in between clinic visits, at Week 18 and every 12 weeks thereafter. An end of study (EOS) visit will occur 12 weeks (±7 days) after the last administration of study drug. Visits (including the Screening visit which serves as the baseline) will entail recording vital signs, targeted physical examination, ECGs, safety laboratory tests, N-terminal pro b-type natriuretic peptide (NT-proBNP), adverse events (AEs), New York Heart Association (NYHA) functional class, Kansas City Cardiomyopathy Questionnaire (KCCQ) score, and concomitant medications. At Weeks 4, 8, 24, 36, 48, 60, 72, 96, 120, 144, 156/early termination (ET), and 168/EOS, a predose blood sample for assessment of drug concentration will be obtained. A standard TTE (including but not limited to assessment of LVOT gradient at rest and after Valsalva) will be performed at baseline, at Weeks 4, 8, 12, 24, 36, 48, 72, 96, 120, 144, 156/ET, and 168/EOS. In addition, a stress echocardiogram (with assessment of LVOT gradient post-exercise) will also be performed at baseline, Weeks 4, 48, 72, 156/ET, and 168/EOS.
The study endpoints include safety, tolerability, and select measures of efficacy using individualized dosing. Key measurements include LVOT gradient, LVEF, NT-proBNP.
• 1. Frequency and severity of treatment-emergent AEs and SAEs, • 2. Frequency of cardiovascular (CV) death, • 3. Frequency of sudden death, • 4. Frequency of CV hospitalization, • 5. Frequency of heart failure requiring the initiation of oral loop diuretics or the administration of intravenous loop diuretics, • 6. Frequency of myocardial infarction, • 7. Frequency of ventricular arrhythmias (ventricular tachycardia, ventricular fibrillation, ventricular flutter, torsade de pointe), • 8. Frequency of syncope, • 9. Frequency of seizures, • 10. Frequency of stroke, • 11. Frequency of LVEF≤45 as measured by echocardiography, • 12. QT and QTcF intervals over time. Efficacy and Pharmacodynamics Include: • 1. Post-exercise, post-Valsalva, and resting LVOT gradient over time, • 2. NYHA functional class over time, • 3. KCCQ scores over time, • 4. NT-proBNP over time, • 5. Frequency of septal reduction therapy.

The subject of data set [2] is conscious fully-instrumented dogs with normal cardiac function. As to the kind of experiment: Cardiac reserve under acute β-AR (dobutamine) challenges in conscious instrumented dogs. It counts as in vivo, dog. On the procedure:
In addition, the effects of MAVA (at 1.5 mg/kg PO, via gavage) on cardiac reserve were evaluated via acute β-AR challenges (dobutamime: 2, 5, and 10 ug/kg/min IV) in conscious fully-instrumented (LVPV group) dogs with normal cardiac function (n=8). These challenges were performed before/after dosing (+3-hour) in control- and MAVA-treated animals both under normal cardiac physiological conditions (n=4) and under (mild) concomitant cardio-depression induced via either selective β-AR blockade (+BB, metoprolol 0.5±0.1 mg/kg PO tid; n=4) or L-type Ca2+-channel blockade (+CCB, verapamil at 5±1 mg/kg PO tid; n=4); pharmacological blockades were established for 7 days prior to the MAVA treatment. Both peak and dose-responses were evaluated at steady state.
Throughout these experiments, analog signals were digitally acquired (1000 Hz) and recorded continuously with a data acquisition/analysis system (IOX; EMKA Technologies). Heart rate (HR), end-systolic (ESP) and end-diastolic pressures (EDP), as well as the peak rates of pressure rise/decline (dP/dtmax and dP/dtmin), the contractility index (CI: dP/dt/P at dP/dtmax), and the time-constant of myocardial relaxation (tau1/2, time for 50% decay from dP/dtmin) were derived from the LV pressure signal. Meanwhile, the end-systolic (ESV) and end-diastolic volumes (EDV) were measured from the LV volume signal derived from the implanted myocardial crystals. LV volumes were derived assuming a Teichholz model, and stroke volume (SV=EDV−ESV), ejection fraction (EF=SV/EDV), as well as cardiac output (CO=SV·HR) were calculated; in a subset of animals, SV and CO values were verified from data derived from the implanted aortic flow […]. […] The slopes of the preload-recruitable stroke work (PRSW; stroke work vs. EDV) and the end-systolic pressure-volume relationships (ESPVR; end-systolic elastance, Ees) were derived by software using linear models (IOX; EMKA Technologies), and were used as load-independent inotropic indices. Ventricular load was estimated by the effective arterial elastance (Ea=ESP/SV). […]

For `CC(C)n1c(=O)cc(N[C@@H](C)c2ccccc2)[nH]c1=O` [mavacamten, (S)-3-Isopropyl-6-((1-phenylethyl)amino)pyrimidine-2, 4(1H,3H)-dione], the “cardiac-related adverse events attributed to study drug” value in data set [1] (48-week period) was “no cardiac-related adverse events (AEs) attributed to study drug”. In addition, the “E/e′ lateral, mean” value is on record as −3.4 in data set [1] (Change from Baseline to Week 48); 9.8 in data set [1] (Week 12); 10.2 in data set [1] (Week 24); 8.5 in data set [1] (Week 36); 9.1 in data set [1] (Week 48). The “IVS (interventricular septal thickness), mean” value in data set [1] (Week 12) turned out to be 16.0 mm; in data set [1] (Week 12, listed as Mavacamten), 15.9 ± 2.7 mm; in data set [1] (Week 24) it was 15.8 mm; in data set [1] (Week 24, listed as Mavacamten), 15.8 ± 2.7 mm; in data set [1] (Week 36), 15.4 mm; in data set [1] (Week 36, listed as Mavacamten) it was 15.4 ± 2.7 mm. In addition, the “IVS (interventricular septal thickness), mean” value in data set [1] (Week 48) is 15 mm and 15.3 mm; in data set [1] (Week 48, listed as Mavacamten), 15.5 ± 2.0 mm. For the same compound, the “IVS (interventricular septal thickness), mean change from baseline” value is −1.5 mm in data set [1] (Week 48); −1.2 mm and −1.2 ± 2.3 mm in data set [1] (Week 48, listed as Mavacamten). The “LVEF, mean change from baseline” value in data set [1] (Week 48) is reported as −1.8%. The “NT-proBNP, median” value in data set [1] (Week 48) is given as 136.5 pg/mL. Besides, the “patients who achieved a post-exercise LVOT gradient <30 mm Hg” value in data set [1] (Week 48) is given as “Five”. In addition, in data set [1] (Week 60), the “median NT-proBNP, change from baseline” value was -481 pg/mL. The LVEF maintained entry in data set [1] (all patients at all timepoints) is “above 50%”. For the same compound, in data set [1] (in 3 subjects, 7 mild, 1 moderate), the “AEs considered potentially related to study drug” value is recorded as 8. Also, the “β-AR induced acceleration of tau” value in data set [2] (at any given dP/dtmax gain) is “enhanced”. The “β-AR elevations in dP/dtmax and CI” value in data set [2] (dobutamine challenge, MAVA 1.5 mg/kg PO) is recorded as “blunted”.
